Test results: patent US8535730B1, “Anticalculus oral composition” (Colgate-Palmolive Company, priority 1985, dated 2013)
Like-named read-outs stand apart in the source and are kept apart here.

How the values were obtained:
[1] = Experimental: The in vitro formation of HAP is measured titrimetrically via a pH stat procedure. Stock solutions of 0.1M CaCl2 and 0.1M NaH2PO4 are prepared fresh in carbonate-free deionized distilled water. To 23 ml CO2-free deionized water 1.0 ml. of the stock phosphate solution and 1.0 ml. of an aqueous solution of 1×10^−4 of the anticalculus agent being tested are added followed by 1.0 ml. of the stock calcium-chloride solution which initiates the reaction. The reaction is conducted at pH 7.4 under a nitrogen atmosphere. Consumption of 0.1N NaOH is recorded automatically from which the time required for crystal formation is determined.
[2] = test system: acid phosphatase, alkaline phosphatase, and inorganic pyrophosphatase; conditions: for Percent Orthophosphate Released in 90 min.: pH 7.0, 37° C.
Experimental: Enzymatic hydrolysis is conducted in 100 millimolar morpholinopropane sulfonic acid—NaOH buffer solution (pH 7.0) containing 1.3 mg./ml of TSPP. Inhibitors of this invention are added (except to the control) to a final concentration of 1,000 ppm fluoride ion (from NaF) and 0.5% of the sodium salt of hydrolyzed methoxyethylene-maleic anhydride (1:1) copolymer, M.W. 70,000 (Gantrez S-97 Pharmaceutical Grade). Equal activities of acid phosphatase, alkaline phosphatase, and inorganic pyrophosphatase are then added to yield a total phosphatase activity of 0.3 units/ml. Samples of the test solution are taken and total orthophosphate available in each sample measured after 3 hours hydrolysis in 4N HCl at 100° C. The reaction mixture is incubated at 37° C. with shaking and aliquots taken at appropriate times through at least 90 minutes for orthophosphate determination.

SMILES: O=P([O-])([O-])OP(=O)([O-])[O-].[K+].[K+].[K+].[K+] [TKPP, tetrapotassium pyrophosphate]
- HAP formation inhibition results compared with TSPP (in words) ([1]; water, saliva, pyrophosphatase, alkaline phosphatase, TKPP instead of TSPP): Substantially the same results
- Enzymatic hydrolysis results compared with TSPP (in words) ([2]; equivalent amounts of TKPP substituted for TSPP, with and without inhibitors): Substantially the same results

SMILES: O=P([O-])([O-])OP(=O)([O-])[O-].[Na+].[Na+].[Na+].[Na+] [TSPP, Tetrasodium pyrophosphate]
- Time of Crystal Growth Inhibition ([1]; Water, pH 7.4, nitrogen atmosphere): 0.8 h
- Delay of HAP formation (in words) ([1]; in water): significantly delays HAP formation
- Time of Crystal Growth Inhibition ([1]; incubated with Alk. Phosphatase, pH 7.4): 0.0 h
- Time of Crystal Growth Inhibition ([1]; incubated with Pyrophosphatase, pH 7.4): 0.3 h
- Time of Crystal Growth Inhibition ([1]; incubated with Saliva, pH 7.4): 0.4 h
- Delay period of HAP formation (in words) ([1]; incubated with pyrophosphatase and alkaline phosphatase): drastically reduces the delay period
- Effectiveness in delaying HAP formation (in words) ([1]; incubated with saliva): drastically reduced
- Percent Orthophosphate Released in 90 min. ([2]; Control (no inhibitors), 1.3 mg./ml TSPP, total phosphatase activity 0.3 units/ml): 98%
- Percent Orthophosphate Released in 90 min. ([2]; With Inhibitors: 1,000 ppm fluoride ion (from NaF) and 0.5% Gantrez S-97, 0.3 units/ml phosphatase): 58%
- Percent Relative Protection (reduction of hydrolysis of P-O-P bonds with inhibitors) ([2]; With inhibitors vs control, 90 min.): 41%
